Data from patent publication US20100286415A1, “SLEEP-IMPROVING AGENT” (OSAKA BIOSCIENCE INSTITUTE, priority 2007, published 2010).

How the values were obtained:
Sprague-Dawley rats = experiment: EEG/EMG sleep recording in rats after oral administration (Test Example 1); type: in vivo, rat; settings: 100 mg/kg oral, administered at start of dark period, compared to vehicle (water), FIG. 1
Protocol: Sprague-Dawley rats (male, 8 weeks old, weighing 250-280 g) were purchased from Japan SLC, Inc.
The rats were individually housed in acrylic cages placed in a sound insulation chamber. They were given solid rat food (food name: Labo MR Stock) in a 12-hour light and dark cycle (light period starting at 7 a.m.), with free access to food and drinking water.
(§1) An operation to implant electrodes for measuring EEG/EMG was performed on the rats (Huang Z. L. et al., J. Neurosci. 2003, 23(14), 5975-83., Okada T. et al., Biochem. Biophys. Res. Commun. 2003, 312(1), 29-34). The rats were placed in a chamber for recovery for 10 days, and recovered. Then, the rats were moved to a chamber for recording, and measurement cables were connected to the electrodes. The rats were adapted to the environment for 4 days.
Oxypinnatanine was dissolved in water, and a dosage of 100 mg/kg was orally administered using a probe. Administration was carried out at 19:00 (starting time of a dark period). […]
(§2) The EEG and EMG were amplified (EEG: 0.5-30 Hz, EMG: 20-200 Hz), and then digitalized at a sampling speed of 128 Hz for recording. […] EEG data over 12 hours after administration were analyzed. Then, waking time, non-REM sleep time, and REM sleep time per hour were calculated. Further, the EEG power spectrum was analyzed, and the amplitudes of theta waves and delta waves were thereby analyzed.

Slc:ICR mice = experiment: Locomotor assay (amount of locomotion) in mice, infrared monitor (Test Example 2); type: in vivo, mouse; settings: 100 mg/kg oral, administered at start of dark period, compared to vehicle (water), FIG. 2
Protocol: Slc:ICR mice (male, 10 weeks old, weighing 38-40 g) were purchased from Japan SLC, Inc.
The mice were housed in groups (8 mice per group) in acrylic cages placed in a chamber for monitoring the amount of animal behavior, and were habituated for 7 days. They were given solid rat food (food name: Labo MR Stock) in a 12-hour light and dark cycle (light period starting at 7 a.m.), with free access to food and drinking water.
(§3) Oxypinnatanine was dissolved in water, and a dosage weight of 100 mg/kg was orally administered using a probe. Administration was carried out at 19:00 (starting time of a dark period). On day 1, water was solely administered as a control containing only the solvent. On day 2, oxypinnatanine was administered (n=8).
An infrared monitor was used to detect infrared light emitted from the animals to count the amount of locomotion. The infrared monitor recorded continuously for 12 hours. Recording was conducted using a Biotex 16CH Act Monitor BAI2216 (Biotex). For analysis, the time-dependent change in the amount of locomotion and the total amount of locomotion in each hour were calculated.

C57BL/6 mice = experiment: EEG/EMG sleep recording in mice after oral administration (Test Example 3); type: in vivo, mouse; settings: 10 mg/kg oral, administered at start of dark period, compared to vehicle (water), FIG. 3
Protocol: C57BL/6 mice (male, 10 weeks old, weighing 25-28 g) were purchased from Oriental BioService Inc.
The mice were individually housed in acrylic cages placed in a sound insulation chamber. They were given solid mouse food (food name: Labo MR Stock) in a 12-hour light and dark cycle (light period starting at 8 a.m.), with free access to food and drinking water.
as §1, with “mice.” for “rats (Huang Z. L. et al., J. Neurosci. 2003, 23(14), 5975-83., Okada T. et al., Biochem. Biophys. Res. Commun. 2003, 312(1), 29-34).”, “mice” for “rats”
as §3, with “dosage” for “dosage weight”, “10” for “100”, “20:00” for “19:00”, “(n=4).” for “(n=8).”
as §2, with “at the” for “at a”

melting point | Structure (SMILES) | Total non-REM sleep time during 6 hours after administration (Sprague-Dawley rats) | Total amount of locomotion during 6 hours after administration (Slc:ICR mice) | Total non-REM sleep time during 4 hours after administration (C57BL/6 mice)
 | NC(CC(O)C(=O)NC1OCC=C1CO)C(=O)O (stereo not shown) [Oxypinnatanine, oxypinnatanine] | effect of increasing non-REM sleep time | statistically significant decrease in the amount of locomotion | effect of increasing non-REM sleep time with statistical significance
152 to 153 °C (dec.) | NC(CC(O)C(=O)NC1OCC=C1CO)C(=O)O (stereo not shown) (hydrate or solvate) [Oxypinnatanine, oxypinnatanine] |  |  | 
